The results in this text go back to US20210323918A1, “COMPOSITIONS AND METHODS FOR SUPPRESSING AND/OR TREATING A GROWTH RELATED DISEASE AND/OR A CLINICAL CONDITION THEREOF” (CK Biotech Inc., priority 2018, published 2021).

The first test deals with T1, CXXC5-DVL interaction (Homo sapiens, UniProt O14640).
T1 construct: 5 mg/ml purified DVL PDZ domain was incubated in each well
T1 sequence (O14640 251-323 limits assumed): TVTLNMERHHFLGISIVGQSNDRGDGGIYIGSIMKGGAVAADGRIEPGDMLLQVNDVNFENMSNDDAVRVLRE
Briefly: In vitro CXXC5-DVL binding assay (FITC-tagged PTD-DBMP on DVL PDZ domain). As to conditions: compound 30 μM; fluorescent intensity normalized to DMSO-treated control; read-out: CXXC5-DVL interaction (%). The protocol:
Screening for compounds that inhibit the CXXC5-DVL interaction. […] Briefly, 5 mg/ml purified DVL PDZ domain was incubated in each well of a 96-well Maxibinding Immunoplate (SPL) at 4° C. for 16 hours. After the addition of 10 μM FITC-tagged PTD-DBMP to each well, each compound in the chemical library or control (DMSO) was treated to the well at a final concentration of 30 μM. The fluorescence intensity was measured using a Fluorstar Optima microplate reader (BGM Lab Technologies, Ortenberg, Germany). The binding values were calculated as a percent ratio of the fluorescent intensity normalized to the DMSO-treated control.
For the compound `COc1ccc(C)cc1/N=N/c1ccc(O)c2nc(/C=N/O)ccc12` [Compound 1], the remaining activity at 30 µM was found to be 7.62%.

In the case of `COc1ccc(C2CC(C(F)(F)F)n3ncc(C(=O)O)c3N2)cc1OC` (centres unmarked) [Compound 2], the remaining activity at 30 µM was determined as 1.01%.

Take `Cc1cc(C)c2c(O)nc(SCC(=O)c3ccc(O)c(O)c3)nc2n1` [Compound 3]: the remaining activity at 30 µM was determined as 4.01%.

Consider `COC(=O)C1=C(C)N/C(=C/c2cc(C)n(-c3ccccc3F)c2C)C1=O` [Compound 4], for which the remaining activity at 30 µM turned out to be 4.76%.

Turning to `O=C(O)C1Sc2[nH]c(=O)sc2C2c3cc(Br)cc(Br)c3OC(=O)C12` (centres unmarked) [Compound 5], the remaining activity at 30 µM worked out at 1.19%.

As for `CCN(CC)S(=O)(=O)c1ccc(OC)c(Nc2cc(-c3ccccc3)nc(C)n2)c1` [Compound 6], the remaining activity at 30 µM worked out at 7.63%.

Regarding `COc1ccc(C2CC(=O)C3=C(C2)Nc2onc(C)c2C3c2ccc(O)c(O)c2)cc1OC` (centres unmarked) [Compound 7], the remaining activity at 30 µM was determined as 0.72%.

For `CN1CCc2cc(O)cc3c2[C@H]1Cc1ccc(O)c(O)c1-3` [Compound 9], the remaining activity at 30 µM was 2.5%.

Take `O=c1cc(O)cc(/C=C/c2ccc(O)c(O)c2)o1` [Compound 11]: the remaining activity at 30 µM came to 1.73%.

Turning to `O=C1Nc2ccccc2/C1=C1/Nc2ccccc2/C1=N\O` [Compound 12, indirubin-3′-oxime, reference compound], the remaining activity at 30 µM amounted to 7.65%.

Regarding `O=c1c(O)c(-c2cc(O)c(O)c(O)c2)oc2cc(O)cc(O)c12` [Compound 13], the remaining activity at 30 µM is 7.66%.

In the case of `CC(N)(Cc1ccc(O)c(O)c1)C(=O)O` (centres unmarked) [Compound 14], the remaining activity at 30 µM is 7.65%.

As to `O=c1c(O)c(-c2ccc(O)cc2O)oc2cc(O)cc(O)c12` [Compound 15], the remaining activity at 30 µM is 7.43%.

Turning to `Oc1cc(O)cc(/C=C/c2ccc(O)c(O)c2)c1` [Compound 17], the remaining activity at 30 µM amounted to 7.61%.

Turning to `O=C(OCCN1CCOCC1)C1(c2ccccc2)CCCCC1` [Compound 18], the remaining activity at 30 µM turned out to be 5.7%.

Staying with this test, now noted: read-out: CXXC5-DVL interaction (%).
Regarding `NC(Cc1cc(O)c(O)cc1O)C(=O)O` (centres unmarked) [Compound 10], the remaining activity at 30 µM came to 1.39%.

In the case of `CN(C)c1ccc(O)c2c1C[C@H]1C[C@H]3[C@H](N(C)C)C(O)=C(C(N)=O)C(=O)[C@@]3(O)C(O)=C1C2=O` [Compound 16], the remaining activity at 30 µM is 4.37%.
